Measured values published in paper PMC7156736, “Phase 1 study of the pan-HER inhibitor dacomitinib plus the MEK1/2 inhibitor PD-0325901 in patients with KRAS-mutation-positive colorectal, non-small-cell lung and pancreatic cancer” (British Journal of Cancer, 2020).
Where two headings read alike, the source gives them in different places.

What was measured:
[1] = plasma pharmacokinetics in patients (HPLC–MS/MS, non-compartmental analysis); assay type: in vivo, human; settings: for AUC(0-t) / Cmax / Tmax: human, plasma, oral; for AUC(0-t): read-out: AUC0-24h dacomitinib, mean (CV%); for Cmax: read-out: Cmax dacomitinib, mean (CV%); for Tmax: read-out: tmax dacomitinib, mean
Procedure: For pharmacokinetic analyses, serial blood samples were obtained from all patients prior to treatment administration on day 1, and 1, 2, 3, 4, 6, 8, 12, 24, 72 and 144 h after the first dose. On day 1 of cycle 2, blood samples were drawn before and 1, 2, 3, 4, 6, 8, 12 and 24 h after administration. Plasma samples were assayed using a validated high-performance liquid chromatography– tandem mass spectrometry method (HPLC–MS/MS). Briefly, dacomitinib and PD-0325901 were extracted from plasma by protein precipitation with a mixture of acetonitrile/methanol (1:1 v/v). Compounds were chromatographically separated using a Waters Xbridge BEH Phenyl column (50 ×2.1-mm ID, 5-μm particle size), and detection was performed using an API4000 tandem mass spectrometer equipped with a turbo ion spray interface, operating in the positive ion mode. Transitions from m/z 480 to 329 and m/z 489 to 255 were monitored for the detection of dacomitinib and PD-0325901, respectively. Stable isotope-labelled internal standards were used for the quantification. The lower and upper limits of quantification were, respectively, 0.5 and 50 ng/ml for dacomitinib, and 5 and 500 ng/ml for PD-0325901. Pharmacokinetic parameters were calculated in R using an in-house-developed validated script for non-compartmental pharmacokinetic analyses (version 3.6.0).[9]

[2] = test system: patients with KRASm CRC, NSCLC or pancreatic cancer; assay type: in vivo; settings: dacomitinib QD continuous, PD-0325901 BID 21 days on/7 days off
Text: . The starting doses were based on previous data from single-agent Phase 1 studies with both compounds, taking into account the potential for synergistic toxicity. […]. Dose-escalation decisions were based on safety evaluation of all evaluable patients, performed after completion of the first treatment cycle. Patients were considered evaluable for the dose-determining part of this study if at least one cycle of study treatment was completed, with the minimum safety evaluation conducted, and at least one administration of both drugs received, or if dose-limiting toxicity (DLT) had occurred during the first cycle. If one out of three patients experienced a DLT, the number of patients treated at that dose level was expanded to a maximum of six. […] Patients were continuing study treatment until disease progression, unacceptable toxicity or investigator/patient decision to discontinue.
Safety was monitored throughout the treatment by physical examination, laboratory assessments, electrocardiography, ophthalmic evaluation and collection of adverse events. Adverse events were recorded according to the Common Terminology Criteria for Adverse Events version 4.0. All adverse events that were possible, probable or definite related to study drug were considered as study/treatment related. […]

HER1 = settings: human catalytic domain of HER1; read-out: in vitro IC50; cited from earlier work
HER2 = settings: human catalytic domain of HER2; read-out: in vitro IC50; cited from earlier work
HER4 = settings: human catalytic domain of HER4; read-out: in vitro IC50; cited from earlier work
HER2/HER3 = test system: HER2/HER3; design: method as in unpublished data; settings: ref unpublished data; cited from earlier work
[3] = 15 mg, All 15 mg doses, Cycle 1 Day 1, n = 23
[4] = 15 mg, All 15 mg doses, Cycle 2 Day 1, n = 18
[5] = 30 mg, All 30 mg doses, Cycle 1 Day 1, n = 17
[6] = 30 mg, All 30 mg doses, Cycle 2 Day 1 or last day of concomitant use, n =11
[7] = Dose-level 1: dacomitinib 30 mg QD + PD-0325901 2 mg BID, Cycle 1 Day 1, n = 6
[8] = Dose-level 1: dacomitinib 30 mg QD + PD-0325901 2 mg BID, Cycle 2 Day 1, n = 6
[9] = Dose-level 2: dacomitinib 15 mg QD + PD-0325901 3 mg BID, Cycle 1 Day 1, n = 6
[10] = Dose-level 2: dacomitinib 15 mg QD + PD-0325901 3 mg BID, Cycle 2 Day 1, n = 5
[11] = Dose-level 3: dacomitinib 15 mg QD + PD-0325901 4 mg BID, Cycle 1 Day 1, n = 2
[12] = Dose-level 3: dacomitinib 15 mg QD + PD-0325901 4 mg BID, Cycle 2 Day 1, n = 2
[13] = Dose-level 4: dacomitinib 15 mg QD + PD-0325901 5 mg BID, Cycle 1 Day 1, n = 3
[14] = Dose-level 4: dacomitinib 15 mg QD + PD-0325901 5 mg BID, Cycle 2 Day 1, n = 3
[15] = Dose-level 5: dacomitinib 15 mg QD + PD-0325901 6 mg BID, Cycle 1 Day 1, n = 8
[16] = Dose-level 5: dacomitinib 15 mg QD + PD-0325901 6 mg BID, Cycle 2 Day 1, n = 5
[17] = Dose-level 6: dacomitinib 30 mg (4/3) QD + PD-0325901 6 mg BID, Cycle 1 Day 1, n = 3
[18] = Dose-level 6: dacomitinib 30 mg (4/3) QD + PD-0325901 6 mg BID, last day of concomitant use of both drugs, n = 1
[19] = Dose-level 7: dacomitinib 30 mg (5/2) QD + PD-0325901 6 mg (5/2) BID, Cycle 1 Day 1, n = 3
[20] = Dose-level 7: dacomitinib 30 mg (5/2) QD + PD-0325901 6 mg (5/2) BID, last day of concomitant use of both drugs, n = 2
[21] = Dose-level 8: dacomitinib 30 mg (5/2) QD + PD-0325901 5 mg (5/2) BID, Cycle 1 Day 1, n = 5
[22] = Dose-level 8: dacomitinib 30 mg (5/2) QD + PD-0325901 5 mg (5/2) BID, last day of concomitant use of both drugs, n=2
[23] = Dose-level -1: dacomitinib 15 mg QD + PD-0325901 2 mg BID, Cycle 1 Day 1, n = 4
[24] = Dose-level -1: dacomitinib 15 mg QD + PD-0325901 2 mg BID, Cycle 2 Day 1, n = 3

Q: Which “plasma concentration versus preclinical target of 22 ng/ml” value ([1]; 15 mg dacomitinib doses, for a substantial number of patients) does the source give for `COc1cc2ncnc(Nc3ccc(F)c(Cl)c3)c2cc1NC(=O)/C=C/CN1CCCCC1` [dacomitinib] here?
A: Its value is “did not exceed the preclinical target”.

Q: And the “increase of exposure with dose” value ([1]; across dose levels)?
A: The value was “approximately dose-proportionally”.

Q: And the AUC(0-t) [1, 3]?
A: The AUC(0-t) was 122 ng·h/mL.

Q: And the Cmax [1, 3]?
A: The Cmax was 8.6 ng/mL.

Q: And the Tmax [1, 3]?
A: The Tmax was 7.6 h.

Q: What about the AUC(0-t) [1, 4] of the same compound?
A: The AUC(0-t) was 616 ng·h/mL.

Q: And the Cmax [1, 4]?
A: The Cmax was 31.2 ng/mL.

Q: What about the Tmax [1, 4] of the same compound?
A: Its Tmax is 7.2 h.

Q: And the AUC(0-t) [1, 5]?
A: Its AUC(0-t) is 250 ng·h/mL.

Q: What about the Cmax [1, 5] of the same compound?
A: Its Cmax is 16 ng/mL.

Q: And the Tmax [1, 5]?
A: The Tmax was 8.3 h.

Q: And the AUC(0-t) [1, 6]?
A: The AUC(0-t) was 909 ng·h/mL.

Q: And the Cmax [1, 6]?
A: The Cmax was 51.7 ng/mL.

Q: What about the Tmax [1, 6] of the same compound?
A: Its Tmax is 4.8 h.

Q: What about the AUC(0-t) [1, 7] of the same compound?
A: Its AUC(0-t) is 318 ng·h/mL.

Q: And the Cmax [1, 7]?
A: Its Cmax is 19.2 ng/mL.

Q: And the Tmax [1, 7]?
A: Its Tmax is 7.5 h.

Q: And the AUC(0-t) [1, 8]?
A: Its AUC(0-t) is 888 ng·h/mL.

Q: What about the Cmax [1, 8] of the same compound?
A: The Cmax was 47.4 ng/mL.

Q: What about the Tmax [1, 8] of the same compound?
A: The Tmax was 7.6 h.

Q: And the AUC(0-t) [1, 9]?
A: The AUC(0-t) was 112 ng·h/mL.

Q: And the Cmax [1, 9]?
A: The Cmax was 6.7 ng/mL.

Q: What about the Tmax [1, 9] of the same compound?
A: Its Tmax is 8.7 h.

Q: And the AUC(0-t) [1, 10]?
A: Its AUC(0-t) is 549 ng·h/mL.

Q: What about the Cmax [1, 10] of the same compound?
A: The Cmax was 26 ng/mL.

Q: What about the Tmax [1, 10] of the same compound?
A: Its Tmax is 9.6 h.

Q: And the AUC(0-t) [1, 11]?
A: The AUC(0-t) was 45 ng·h/mL.

Q: What about the Cmax [1, 11] of the same compound?
A: Its Cmax is 2.5 ng/mL.

Q: And the Tmax [1, 11]?
A: Its Tmax is 12 h.

Q: And the AUC(0-t) [1, 12]?
A: The AUC(0-t) was 262 ng·h/mL.

Q: And the Cmax [1, 12]?
A: The Cmax was 25.7 ng/mL.

Q: What about the Tmax [1, 12] of the same compound?
A: Its Tmax is 2 h.

Q: What about the AUC(0-t) [1, 13] of the same compound?
A: The AUC(0-t) was 137 ng·h/mL.

Q: What about the Cmax [1, 13] of the same compound?
A: The Cmax was 8.5 ng/mL.

Q: And the Tmax [1, 13]?
A: The Tmax was 4.7 h.

Q: And the AUC(0-t) [1, 14]?
A: Its AUC(0-t) is 654 ng·h/mL.

Q: What about the Cmax [1, 14] of the same compound?
A: Its Cmax is 33.5 ng/mL.

Q: What about the Tmax [1, 14] of the same compound?
A: The Tmax was 5 h.

Q: What about the AUC(0-t) [1, 15] of the same compound?
A: The AUC(0-t) was 136 ng·h/mL.

Q: What about the Cmax [1, 15] of the same compound?
A: The Cmax was 11.4 ng/mL.

Q: And the Tmax [1, 15]?
A: Its Tmax is 7.9 h.

Q: And the AUC(0-t) [1, 16]?
A: Its AUC(0-t) is 747 ng·h/mL.

Q: What about the Cmax [1, 16] of the same compound?
A: Its Cmax is 37.3 ng/mL.

Q: And the Tmax [1, 16]?
A: Its Tmax is 4.4 h.

Q: What about the AUC(0-t) [1, 17] of the same compound?
A: The AUC(0-t) was 159 ng·h/mL.

Q: What about the Cmax [1, 17] of the same compound?
A: The Cmax was 11.1 ng/mL.

Q: What about the Tmax [1, 17] of the same compound?
A: Its Tmax is 7.3 h.

Q: What about the AUC(0-t) [1, 18] of the same compound?
A: The AUC(0-t) was 647 ng·h/mL.

Q: And the Cmax [1, 18]?
A: Its Cmax is 32 ng/mL.

Q: And the Tmax [1, 18]?
A: The Tmax was 8 h.

Q: What about the AUC(0-t) [1, 19] of the same compound?
A: The AUC(0-t) was 290 ng·h/mL.

Q: And the Cmax [1, 19]?
A: The Cmax was 19.1 ng/mL.

Q: And the Tmax [1, 19]?
A: The Tmax was 13.3 h.

Q: What about the AUC(0-t) [1, 20] of the same compound?
A: The AUC(0-t) was 658 ng·h/mL.

Q: What about the Cmax [1, 20] of the same compound?
A: Its Cmax is 37.5 ng/mL.

Q: What about the Tmax [1, 20] of the same compound?
A: Its Tmax is 4.5 h.

Q: And the AUC(0-t) [1, 21]?
A: The AUC(0-t) was 200 ng·h/mL.

Q: And the Cmax [1, 21]?
A: Its Cmax is 14.2 ng/mL.

Q: What about the Tmax [1, 21] of the same compound?
A: Its Tmax is 6.6 h.

Q: And the AUC(0-t) [1, 22]?
A: Its AUC(0-t) is 789 ng·h/mL.

Q: And the Cmax [1, 22]?
A: Its Cmax is 55.9 ng/mL.

Q: And the Tmax [1, 22]?
A: The Tmax was 4.5 h.

Q: What about the AUC(0-t) [1, 23] of the same compound?
A: The AUC(0-t) was 126 ng·h/mL.

Q: And the Cmax [1, 23]?
A: The Cmax was 7.9 ng/mL.

Q: What about the Tmax [1, 23] of the same compound?
A: Its Tmax is 5.6 h.

Q: And the AUC(0-t) [1, 24]?
A: The AUC(0-t) was 513 ng·h/mL.

Q: And the Cmax [1, 24]?
A: The Cmax was 26.3 ng/mL.

Q: And the Tmax [1, 24]?
A: Its Tmax is 11 h.

Q: What about the “increase of mean Cmax and AUC0–24h after multiple dosing (accumulation)” value ([1]; patients, combination treatment) of the same compound?
A: Its value is 3- to 5 fold.

Q: What about the “recommended Phase 2 dose (RP2D) / established maximum dose level in the combination with continuous dacomitinib dosing” value [2] of the same compound?
A: The value was 15 mg.

Q: And the IC50 (HER1)?
A: The IC50 was 6 nM.

Q: And the IC50 (HER2)?
A: Its IC50 is 45.7 nM.

Q: What about the IC50 (HER4) of the same compound?
A: The IC50 was 74 nM.

Q: What about the “IC50 for HER2/HER3 inhibition (preclinical target plasma concentration)” value (HER2/HER3) of the same compound?
A: The value was 0.022 µg/mL.
